From the NIST ThermoML archive (doi:10.1021/acs.jced.8b00879)
Numbers after ± are expanded uncertainties.

Columns and labels:
[1] = 85 kPa, Liquid, Capillary tube (Ostwald / Ubbelohde) method
[2] = mn = molality of the nth substance listed, in mol/kg; details: 85 kPa, Liquid, m2 = 0; for viscosity: Capillary tube (Ostwald / Ubbelohde) method

Q: With `O` [water] as the compound, how does the viscosity ([1]; 288.15 K) read?
A: 1.259 ± 0.12 mPa·s

Q: And the viscosity ([1]; 298.15 K)?
A: 0.995 ± 0.12 mPa·s

Q: And the viscosity ([1]; 308.15 K)?
A: 0.819 ± 0.12 mPa·s

Q: And the viscosity ([1]; 318.15 K)?
A: 0.686 ± 0.12 mPa·s

Q: For `O` [water] + C[N+](C)(C)CCO.NCC(=O)[O-], which viscosity ([2]; 288.15 K) is on record?
A: 1.259 ± 0.12 mPa·s

Q: And the viscosity ([2]; 298.15 K)?
A: 0.995 ± 0.12 mPa·s

Q: What about the mass density ([2]; 298.15 K, Vibrating tube method) of the same compound?
A: 997.38 ± 0.43 kg/m3

Q: And the viscosity ([2]; 308.15 K)?
A: 0.819 ± 0.12 mPa·s

Q: And the viscosity ([2]; 318.15 K)?
A: 0.686 ± 0.12 mPa·s

Q: With `O` [water] + C[N+](C)(C)CCO.O=C([O-])[C@@H]1CCCN1 as the compound, how does the viscosity ([2]; 288.15 K) read?
A: 1.259 ± 0.12 mPa·s

Q: And the viscosity ([2]; 298.15 K)?
A: 0.995 ± 0.12 mPa·s

Q: And the viscosity ([2]; 308.15 K)?
A: 0.819 ± 0.12 mPa·s

Q: And the viscosity ([2]; 318.15 K)?
A: 0.686 ± 0.12 mPa·s
